Where two headings read alike, the source gives them in different places. One block for each molecule: values may come before it.
Assays:
ODC [1] = molecular target: T1, ODC (Homo sapiens, UniProt P11926); experiment: Activity of purified ODC (released CO2); type: biochemical; details: 100 μM tripeptide, 80 ng purified ODC, 1 h, 37° C.
T1 sequence (P11926 1-461): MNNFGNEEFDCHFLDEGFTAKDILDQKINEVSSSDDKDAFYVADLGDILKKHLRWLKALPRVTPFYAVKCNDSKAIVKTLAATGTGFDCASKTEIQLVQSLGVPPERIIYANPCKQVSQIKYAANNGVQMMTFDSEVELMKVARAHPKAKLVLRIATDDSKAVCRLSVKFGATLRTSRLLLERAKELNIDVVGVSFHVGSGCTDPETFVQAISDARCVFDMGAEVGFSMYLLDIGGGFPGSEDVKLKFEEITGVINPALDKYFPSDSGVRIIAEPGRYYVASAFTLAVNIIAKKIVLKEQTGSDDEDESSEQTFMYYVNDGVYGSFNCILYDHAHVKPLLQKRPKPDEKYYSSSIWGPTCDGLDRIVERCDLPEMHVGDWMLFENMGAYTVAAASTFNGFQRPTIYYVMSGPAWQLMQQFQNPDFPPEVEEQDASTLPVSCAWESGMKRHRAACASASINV

hSGLT1 [2] = experiment: hSGLT1-mediated AMG uptake in Xenopus laevis oocytes 1 h after injection of peptides; type: cell-based, human; details: for down-regulation of hSGLT1 when putrescine was added: intracellular concentration 1 μM
Experimental: (§1) Selected oocytes were injected with 50 nl of water containing cRNAs (2.5 ng of hSGLT1 or 0.5 ng of hCNT1). For expression oocytes were incubated for 2-3 days at 16° C. in modified Barth's solution with gentamycin. Noninjected control oocytes were incubated in parallel.
(§2) Before uptake measurements were started, 50 nl of K-Ori buffer containing peptides, polypeptides, 1 pM of calmodulin stimulated kinase 2 (CK2) inhibitor KN93 (Calbiochem San Diego. Calif.), 3 mM of the omithinedecarboxlase inhibitor difluoromethylornithine DFMO and/or or 100 pmol α-methyl-α-D-glucopyranoside (AMG) were injected and the oocytes were incubated for 1 h at room temperature. Uptake was measured in Ori buffer at room temperature. Measurements in transporter expressing oocytes were corrected for measurements in noninjected oocytes. Uptake of 50 μM [^14C]AMG was measured after 15 min incubation and washing in ice-cold Ori buffer containing 1 mM phlorizin. Uptake of 5 μM [^3H]uridine was measured after 15 min incubation and washing in ice-cold Ori buffer. Oocytes were solubilized in 5% (w/v) SDS and analyzed for radioactivity by scintillation counting.
(§3) For comparison of mean values from 2 groups the Student's t-test for unpaired samples was employed.

hCNT1 = experiment: hCNT1-mediated uridine uptake in Xenopus laevis oocytes after injection of peptides; type: cell-based, human; details: for uptake of 5 μM [3H]uridine expressed by hCNT1: low intracellular glucose, no AMG injected
Experimental: as §1, §2, §3

hCNT3 = experiment: hCNT3-mediated uridine uptake in Xenopus laevis oocytes after injection of peptides; type: cell-based, human; details: low intracellular glucose, no AMG injected
Experimental: FIG. 9. […] Posttransciptional downregulation of hCNT1 and hCNT3 was measured without injection of AMG. […] One hour later uptake of 5 μM [^3H]uridine was measured.
as §2

mSGLT1 [3] = details: RS1−/− mice starved over night; gavage 20 μmol per mouse; after 2 h
Experimental: (§4) For measurement of SGLT1 mediated glucose uptake, the everted segments of mouse small intestine or defined areas of human mucosa were incubated for 2 min at 37° C. with Krebs-Ringer buffer containing 10 μM [^14C]AMG with or without 0.2 mM phlorizin. Uptake was stopped by transferring the segments into ice cold Krebs-Ringer buffer containing 0.2 mM phlorizin for 5 min. After washing with ice cold Krebs-Ringer buffer the intestinal segments or pieces of human mucosa were dissolved in 0.5 ml Soluence-350) (Perkin Elmer Inc. Waltham Mass., USA). Radioactivity was analysed by liquid scintillation counting. Phlorizin inhibited AMG uptake per cm length or per standard area of the mucosa was calculated.
(§5) After 2 h the animals were killed, their small intestines were everted and phlorizin inhibited uptake of 10 μM [^14C]AMG Into segments of the everted jejunum was measured (FIG. 12A).

[4] = RS1−/− mice; gavage 20 μmol QEP before 40% D-glucose gavage
Experimental: Blood (2 μL) was collected from the tail vein and analysed using the amperometric glucose oxidase method (glucose meter, ACCU-CHEK Aviva). Blood insulin-Insulin was determined using the rat C-peptide ELISA from Mercodia (Uppsala, Sweden) which is based on the sandwich technique using two monoclonal antibodies directed against two different antigenic determinants on the C-peptide.
as §5

mSGLT1 [5] = tested on: mSGLT1
Experimental: (§6) Standardised t areas of human small intestinal mucosa (FIGS. 13,19) or 1 cm segments of everted mouse small intestine (FIGS. 14,15,20) were washed three times at 37° C. with Krebs-Ringer buffer containing 5 mM D-glucose and incubated for 30 min at 37° C. in Krebs-Ringer buffer containing 5 mM D-glucose plus different concentrations of tripeptides. Thereafter the tissue was washed three times at 0° C. in Krebs-Ringer buffer without glucose and uptake measurements were performed.
as §4
Thereafter the segments were washed with PBS buffer and phlorizin inhibited uptake of 10 μM [^14C]AMG was measured.

hSGLT1 [6] = details: 30 min; for down-regulation of hSGLT1 mediated AMG uptake: 5 mM D-glucose
Experimental: Jejunal segments which were routinely dissected during bariatric operations of highly obese patients were stored for 1-3 h on ice in Dulbecco's modified Eagle's medium containing 5 mM D-glucose. The mucosa was isolated and circular areas of the mucosa were dissected using a punching instrument.
as §6, §4
Next, it was investigated which of the QXP-type tripeptides are capable to downregulate hSGLT1 expression in human small intestine in the presence of high glucose. Jejunal samples that were obtained during bariatric surgery of obese patients (males and females with a mean age of 50 years with a mean body mass index of 50) were used. […] A part of the jejumum which is routinely removed during bariatric surgery, was carried to the laboratory using ice-cold culture medium containing 6 mM D-glucose. Part of the mucosa was dissected and identical areas of the mucosa were isolated using a punching instrument. The mucosal pieces were washed with glucose free buffer and incubated for 30 min at 37° C. in tissue culture medium (pH 6.4) containing 5 mM D-glucose and different QXP-type tripeptides. Thereafter the sample were washed two times with PBS buffer (pH 7.4, 37° C.) and incubated for 2 min at 37° C. in PBS (pH 7.4) containing 100 mM sodium and 10 μM [^14C]AMG. The incubation was performed in the absence and presence of 200 μM of the SGLT1 inhibitor phlorizin. Thereafter the samples were washed with ice-cold PBS, the tissue was dissolved, and radioactivity was determined by liquid scintillation counting. The phorizin inhibited AMG uptake was calculated.

ODC [7] = molecular target: T1, ODC; experiment: Two-hybrid screening and immunocoprecipitation; type: binding; details: data not shown
Experimental: (§7) Employing two-hybrid screening and immunocoprecipitation experiments evidence was provided that hRS1-Reg binds to ODC (data not shown). It was shown that the release of SGLT1 containing vesicles from the Golgi apparatus was blocked by specific ODC Inhibitor difluoromethylornithine (DFMO) and that the DFMO effect was blunted when putrescine was added (FIG. 23A). Since hRS1-Reg and DFMO down-regulate hSGLT1 to a similar degree and the down-regulations were not additive, RS1-Reg and ODC employ the same pathway for down-regulation of hSGLT1.

ODC [8] = molecular target: T1, ODC; experiment: ODC activity (released CO2) in HEK293 cells transfected with ODC; type: cell-based; parameters: expressed in transfected cells; host or cells: HEK293
Experimental: FIG. 23. […] Expressed uptake of 25 μM [^14C]AMG was measured 1 h later as FIG. 2. In A-C mean value±SE of 24-30 oocytes from three independent experiments are presented. D) HEK293 cells were transiently transfected with ODC, ODC plus hRS1-Reg or with ODC plus control vector. […] In D and E mean values±SE from 3-5 independent experiments are indicated. ***P<0.001 for difference to controls measured by ANOVA with posthoc Tukey comparison.
as §7

[9] = without injection of AMG (intracellular AMG <10 μM)

inhibition of ODC activity (ODC [1]): not
Molecule: PEQ: reverse tripeptide PEQ as control [reference compound]

Molecule: glutamine-glutamic acid-proline [QEP]
affinity at high intracellular glucose higher than affinity of QSP at low intracellular glucose (hSGLT1 [2]): about 1000 times
degree of down-regulation of hSGLT1 (hSGLT1 [2]; 5 pM, intracellular AMG ~0.25 mM): ~45%
inhibition of SGLT1 mediated transport (hSGLT1 [2]; 50 nM tripeptide, no AMG injected): inhibition
increase of affinity (decrease of IC50) for down-regulation of hSGLT1 at high versus low intracellular AMG (hSGLT1 [2]; intracellular AMG ~250 μM versus low): more than 15000 fold
down-regulation of hSGLT1 when putrescine was added (hSGLT1 [2]): blunted
inhibition of SGLT1 expression (hSGLT1 [2]; with injection of AMG (intracellular AMG ~0.25 mM)): about 50%
down-regulation / inhibition of hSGLT1-mediated AMG uptake (hSGLT1 [2]; [9]): about 40%
IC50 (hSGLT1 [2]; without injection of AMG (intracellular AMG <10 μM), read-out: IC50 for down-regulation of hSGLT1-mediated AMG uptake): 7.9 nM
uptake of 5 μM [3H]uridine expressed by hCNT1 (hCNT1): not able to inhibit
uptake of 5 μM [3H]uridine expressed by hCNT3 (hCNT3): not able to inhibit
decrease of phlorizin inhibited uptake of 10 μM [14C]AMG into everted jejunum (mSGLT1 [3]): about 30%
plasma D-glucose 15 min after glucose gavage [4]: significantly reduced
effect on SGLT1 mediated AMG uptake, first series of experiments (mSGLT1 [5]): no effect
down-regulation of hSGLT1 mediated AMG uptake (hSGLT1 [6]; 0.1 mM): not statistically significant
down-regulation of hSGLT1 mediated AMG uptake (hSGLT1 [6]; 0.5 mM): not statistically significant
down-regulation of hSGLT1 mediated AMG uptake (hSGLT1 [6]; 1 mM): 40%
SGLT1 mediated AMG uptake at low intracellular glucose (hSGLT1 [6]; 5 mM QEP in PBS without glucose, data not shown): did not decrease
down-regulation of hSGLT1 mediated AMG uptake (hSGLT1 [6]; 15 mM): 75%
inhibition of ODC activity (ODC [1]): about 40%
insulin sensitivity (NZO mice, 5 mM QEP in drinking water): increased
SGLT1-mediated AMG transport into enterocytes and glucose absorption during an OGTT (mouse, in vivo): not decreased
decrease of basal concentration of insulin in the serum (mouse, in vivo): 50%
increase and decrease of serum glucose after gavage with glucose (mouse, in vivo): no effect
increase of serum insulin after gavage with glucose (mouse, in vivo): decreased

IC50 (hCNT1; without injection of AMG, read-out: IC50 for down-regulation of hCNT1-mediated uridine uptake): 126 ± 6 nM
binding to ODC (ODC [7]): binds to ODC
ODC activity when hRS1-Reg was coexpressed (ODC [8]): decreased
B1: hRS1-Reg: regulatory domain of RS1 from human comprising amino acids 16-98 of hRS1 (SEQ ID No. 6) (protein, listed as Homo sapiens)
chain: SSGQSPDVGNPMSLARSVSASVCPIKPSDSDRIEPKAVKALKASAEFQLNSEKKEHLSLQDLSDHASSADHAPTDQSPAMPMQ
down-regulation of hSGLT1 by hRS1-Reg together with DFMO (hSGLT1 [2]; DFMO intracellular concentration 3 mM): not additive
affinity for down-regulation of hSGLT1 when CK2 is blocked by inhibitor KN93 (hSGLT1 [2]; co-injected KN93, no AMG injected): largely increased
effect of intracellular AMG on the affinity for down-regulation of hSGLT1 after inhibition of CK2 (hSGLT1 [2]; co-injected KN93, with AMG): drastically decreased
down-regulation of hSGLT1 when putrescine was added (hSGLT1 [2]): blunted
down-regulation / inhibition of hSGLT1-mediated AMG uptake (hSGLT1 [2]; [9]): about 50%
effect of 250 μM intracellular AMG on affinity for down-regulation of hCNT1 (hCNT1; intracellular AMG 250 μM): not altered
uptake of 5 μM [3H]uridine expressed by hCNT1 (hCNT1): decreased
down-regulation of hCNT1 (hCNT1; without injection of AMG): about 50%
uptake of 5 μM [3H]uridine expressed by hCNT3 (hCNT3): decreased
